These results are taken from US12582656B2, “Nucleotide analogues” (R.G.C.C. Holdings AG, priority 2020, dated 2026).

The target in test [1] is SARS-COV-2 polymerase NSP12 (Severe acute respiratory syndrome coronavirus 2, UniProt P0DTD1). The test can be described thus: SARS-CoV-2 RNA polymerization assay with RdRp catalytic domain, PAGE gel (FIG. 2). In kind it is biochemical. The conditions noted are these: rATP split 50:50 with compound, 37° C. for 2 h.
A further test relates to Polymerase. The test can be described thus: SYBR Green qPCR with modified adenosine analogues added, Ct measured. The conditions noted are these: for effect on amplification of the template (qPCR): dose-dependent, efficacy higher for phosphate than hydroxyl at same concentration. It is filed as biochemical. How it is done:
In a second set of experiments, the modified adenosine analogues were added in a SYBR Green qPCR mix, and reactions performed using the same template and primers as above. The Ct (Threshold Cycle) parameter was measured for each condition. The Ct is the cycle number at which the fluorescence generated within a reaction crosses the fluorescence threshold. The higher the Ct, the lower the amount of product (or lower expression).
At the same concentration, the efficacy of inhibition of amplification was higher for phosphate than hydroxyl.
(Real-time PCR tracks product formation cycle by cycle.)

[2] abbreviates: gene 18SrRNA, substance 0.075 mM (Final).
Where [3] appears, read: gene 18SrRNA, substance 0.15 mM (Final).
The mark [4] stands for this setting: gene 18SrRNA, substance 0.3 mM (Final).
[5] abbreviates: gene ACTB, substance 0.075 mM (Final).
The mark [6] stands for this setting: gene ACTB, substance 0.15 mM (Final).
[7] abbreviates: gene ACTB, substance 0.3 mM (Final).

Consider `Nc1ncnc2c1ncn2C1OC(COP(=O)(O)OP(=O)(O)OP(=O)(O)O)CC1O.[Na]` (stereo not drawn) [commercial inhibitor, Cordycepin 5′-triphosphate sodium salt, reference compound], for which the “in vitro replication of the SARS-CoV-2 RNA via the SARS-CoV-2 RNA polymerase” value (“in vitro replication” below) in test [1] is reported as “polymerization blocked”.
On to `Nc1ncnc2c1ncn2-c1nc(OP(=O)(O)O)c2ccccc2n1` [Compound C, 2-(6-amino-9H-purin-9-yl)quinazolin-4-yl dihydrogen phosphate], for which, in the test on Polymerase, the “effect on amplification of the template (qPCR)” value was “decrease of the amplification of the template”. Also, the “Ct Mean” value was determined as 12.78 in the test on Polymerase (setting [2]); 13.70 with Polymerase (setting [3]); 15.98 with Polymerase (setting [4]); 20.15 in the test on Polymerase (setting [5]); 20.91 with Polymerase (setting [6]); 21.82 in the test with Polymerase (setting [7]). Also, the “in vitro replication” value in test [1] is on record as “inhibits”.
For the molecule `Nc1ncnc2c1ncn2-c1nc(O)c2ccc(F)cc2n1` [Compound B, 2-(6-amino-9H-purin-9-yl)-7-fluoro-quinazolin-4-ol], the “in vitro replication” value in test [1] was “inhibits”.
Regarding `Nc1ncnc2c1ncn2-c1nc(O)c2ccccc2n1` [Compound A, 2-(6-amino-9H-purin-9-yl)quinazolin-4-ol], the “effect on amplification of the template (qPCR)” value with Polymerase is listed as “decrease of the amplification of the template”. For the same molecule, the “Ct Mean” value with Polymerase (setting [2]) was 12.88; in the test with Polymerase (setting [3]) it was 13.43; in the test with Polymerase (setting [4]) it was 14.84; with Polymerase (setting [5]) it was 20.08; in the test with Polymerase (setting [6]), 20.55; in the test with Polymerase (setting [7]), 21.14. For the same molecule, the “in vitro replication” value in test [1] is reported as “inhibits”.
